Converted amounts (≈) assume the structure as drawn. “And” between values parts separate entries of the source, which are not always exact repeats. Equal entries are not always repeated. Where two headings read alike, the source gives them in different places.
Experiments:
[1] = system: WT S. aureus (ATCC 29213, WT); assay: microbe, parasite or virus in culture; assay type: cell-based; settings: WT GyrA and WT ParC, three independent replicates
MRSA clinical isolates = assay: microbe, parasite or virus in culture; assay type: cell-based, S. aureus; settings: for MIC: Staphylococcus aureus, MRSA, read-out: MIC
Experimental: (§1) MRSA and P. aeruginosa isolates were from Cubist Pharmaceuticals (Lexington, MA). VRE isolates were from a previously published collection. E. coli strains were obtained either from ATCC or Professor Cari Vanderpool (UIUC). A. baumannii isolates were obtained from Dr John Quale[51].
Susceptibility testing was performed in triplicate, using the microdilution broth method as outlined by the Clinical and Laboratory Standards Institute[52]. Mueller Hinton (MH) broth was used.

E. faecalis = assay: microbe, parasite or virus in culture; assay type: cell-based; settings: Enterococcus faecalis, E. faecalis
E. faecium = assay: microbe, parasite or virus in culture; assay type: cell-based; settings: Enterococcus faecium, E. faecium
Ent. Spp. = assay: MIC, microdilution broth, Ent. Spp. VRE clinical isolate; assay type: cell-based; settings: Enterococcus, C28036, gyrA Ser83Ile, parC Ser80Ile
Excerpt: as §1
(§2) Mueller Hinton (MH) broth was used.

VRE clinical isolates = assay: MIC, VRE clinical isolates panel (summary by GyrA mutation); assay type: cell-based, Enterococcus; settings: panel of VRE clinical isolates (n=22)
Excerpt: as §1, §2

E. coli = assay: microbe, parasite or virus in culture; assay type: cell-based; settings: Escherichia coli
Excerpt: as §1, §2

P. aeruginosa = assay: MIC, microdilution broth, P. aeruginosa; assay type: cell-based
Excerpt: as §1, §2

A. baumannii = assay: MIC, microdilution broth, A. baumannii; assay type: cell-based; settings: Acinetobacter baumannii
Excerpt: as §1, §2

WT E. coli DNA gyrase = target: T1, WT E. coli DNA gyrase (Escherichia coli, UniProt P0AES4+P0AES6); assay type: biochemical; settings: DNA cleavage assay
T1 construct: His tag (pTRCHisA vector; purified on Ni-NTA); made in house; host or cells: E. coli One Shot BL21 Star (DE3)

S83R E. coli DNA gyrase = target: T2, S83R E. coli DNA gyrase (Escherichia coli, UniProt P0AES4+P0AES6, S83R); assay type: biochemical; settings: DNA cleavage assay
T2 construct: His tag (pTRCHisA vector; purified on Ni-NTA); made in house; host or cells: E. coli One Shot BL21 Star (DE3)

[2] = system: resistant strains of ATCC 29213; assay: microbe, parasite or virus in culture; assay type: cell-based, S. aureus
S. aureus (ATCC 29213) = assay: Resistant mutant generation (resistance frequency); assay type: cell-based; settings: low-level CIP-resistant strain 29213-C1
[3] = Pharmacokinetic assessment; assay type: in vivo, C57BL/6 mice; settings: for Cmax: read-out: Cmax (peak serum concentration)
Experimental: (§3) The animal studies (PK, in-vivo toxicity and in-vivo efficacy) were carried out in strict accordance with the recommendations in the Guide for the Care and Use of Laboratory Animals of the National Institutes of Health. […] In these studies, 10- to 12-week-old female C57BL/6 mice purchased from Charles River were used. DNM, DNM-2 and DNM-3 were formulated as slurries at 8.3 mg ml^−1 in 25% Cremophor RH40/water (v/v). Before beginning the pharmacokinetic assessment, mice were first tested for their ability to tolerate the DNM, DNM-2 and DNM-3 at 50 mg kg^−1 (p.o.). […] At specified time points, mice were killed and blood was collected, centrifuged and the serum was frozen at −80 °C until analysis. The proteins in a 50-μl aliquot of serum were precipitated by the addition of 50 μl of acetonitrile and the sample was centrifuged to remove the proteins. Serum concentrations of DNM, DNM-2 and DNM-3 were determined by HPLC. PK parameters were determined using GraphPad Prism Version 5.00 for Windows.

[4] = Tolerability in mice (maximal tolerated dose); assay type: in vivo
Experimental: as §3

physchem = settings: pH 7.4
Experimental: Three independent replicates of each compound were performed.

[5] = female, C57BL/6, mouse, in vivo, C57/BL6 mice, 50 mg kg-1 oral gavage, serum

CCn1c(=O)cc(C)c2cc3c(C)cc(=O)n4c3c(c21)OC4 [DNM-2]
MIC against S. aureus 29213 ([1]; ATCC 29213): 8 µg/mL (≈ 27 µM) | MIC ([1]; Staphylococcus aureus, ATCC29213, ATCC 29213, read-out: MIC against S. aureus 29213): 8 µg/mL (≈ 27 µM) | MIC (MRSA clinical isolates; strain SAU.1118): 2 µg/mL (≈ 6.75 µM) | MIC (MRSA clinical isolates; strain SAU.2996): 0.5 µg/mL (≈ 1.69 µM) | MIC (MRSA clinical isolates; strain SAU.3017): 4 µg/mL (≈ 13.5 µM) | MIC (MRSA clinical isolates; strain SAU.3021): 0.063 µg/mL (≈ 0.213 µM) | MIC (MRSA clinical isolates; strain SAU.3024): 0.125 µg/mL (≈ 0.422 µM) | MIC (MRSA clinical isolates; strain SAU.3025): 0.063 µg/mL (≈ 0.213 µM) | MIC (MRSA clinical isolates; strain SAU.42): 2 µg/mL (≈ 6.75 µM) | MIC (MRSA clinical isolates; strain SAU.555): 0.25 µg/mL (≈ 0.844 µM) | MIC (MRSA clinical isolates; strain SAU.669): 0.063 µg/mL (≈ 0.213 µM) | MIC (MRSA clinical isolates; strain SAU.846): 0.25 µg/mL (≈ 0.844 µM) | Sensitivity of MRSA clinical isolates (MRSA clinical isolates; panel of MRSA clinical isolates (n=21)): sensitive | MIC (E. faecalis; ATCC19433, ATCC 19433, gyrA WT, parC WT): 8 µg/mL (≈ 27 µM) | MIC (E. faecalis; ATCC29212, ATCC 29212, gyrA WT, parC WT): 8 µg/mL (≈ 27 µM) | MIC (E. faecalis; C21667, gyrA Ser83Ile, parC Ser80Ile): 0.5 µg/mL (≈ 1.69 µM) | MIC (E. faecalis; S206, gyrA Ser83 Arg, parC Ser80Ile): 2 µg/mL (≈ 6.75 µM) | MIC (E. faecium; C21190, gyrA Ser83 Arg, parC Ser80Ile): 8 µg/mL (≈ 27 µM) | MIC (E. faecium; C27282, gyrA Ser83 Arg, parC Ser80Arg): 4 µg/mL (≈ 13.5 µM) | MIC (E. faecium; C27569, gyrA Ser83Ile, parC Ser80Ile): 0.25 µg/mL (≈ 0.844 µM) | MIC (E. faecium; D1, gyrA Ser83Ile, parC Ser80Ile): 0.5 µg/mL (≈ 1.69 µM) | MIC (E. faecium; S34, gyrA Ser83Ile, parC Ser80 Arg): 1 µg/mL (≈ 3.37 µM) | MIC (E. faecium; S51, gyrA Ser83Ile, parC Ser80Ile): 0.5 µg/mL (≈ 1.69 µM) | MIC (E. faecium; S122, gyrA Ser83Ile, parC Ser80Ile): 0.5 µg/mL (≈ 1.69 µM) | MIC (E. faecium; S226, gyrA Ser83Ile, parC Ser80Ile): 0.5 µg/mL (≈ 1.69 µM) | MIC (E. faecium; S235, gyrA Ser83Ile, parC Ser80Ile): 0.5 µg/mL (≈ 1.69 µM) | MIC (E. faecium; S344, gyrA Ser83Ile, parC Ser80Ile): 0.5 µg/mL (≈ 1.69 µM) | MIC (E. faecium; S557, gyrA Ser83Ile, parC Ser80Ile): 0.25 µg/mL (≈ 0.844 µM) | MIC (E. faecium; SL152, gyrA Ser83Ile, parC Ser80Ile): 0.5 µg/mL (≈ 1.69 µM) | MIC (E. faecium; U63, gyrA Ser83 Arg, parC Ser80Ile): 4 µg/mL (≈ 13.5 µM) | MIC (E. faecium; U275, gyrA Ser83Cys Glu87Gly, parC Ser80Ile): 2 µg/mL (≈ 6.75 µM) | MIC (E. faecium; U464, gyrA Ser83 Arg, parC Ser80Ile): 2 µg/mL (≈ 6.75 µM) | MIC (E. faecium; U503, gyrA Ser83 Arg, parC Ser80Ile): 4 µg/mL (≈ 13.5 µM) | MIC (E. faecium; U563, gyrA Ser83 Arg, parC Ser80Ile): 2 µg/mL (≈ 6.75 µM) | MIC (Ent. Spp.): 0.5 µg/mL (≈ 1.69 µM) | Sensitivity of VRE clinical isolates (VRE clinical isolates): sensitive | MIC (E. coli; ATCC25922, E. coli ATCC 25922, gyrA none, parC none): > 24 µg/mL | MIC (E. coli; MG1655, E. coli MG1655): > 24 µg/mL | MIC (E. coli; MG1655, E. coli MG1655 ∆AcrB (permeabilized strain)): 2 µg/mL (≈ 6.75 µM) | MIC (P. aeruginosa; PA1586 (CIP resistant clinical isolate)): > 24 µg/mL | MIC (P. aeruginosa; Pseudomonas aeruginosa, P. aeruginosa PAO1, read-out: MIC): > 24 µg/mL | MIC (P. aeruginosa; Pseudomonas aeruginosa, read-out: MIC): > 24 µg/mL | MIC (A. baumannii): > 24 µg/mL | MIC (A. baumannii; ATCC19606, A. baumannii ATCC 19606, read-out: MIC): > 24 µg/mL | inhibition of WT DNA gyrase (increase in L or OC DNA) (WT E. coli DNA gyrase): poor inhibitors of WT DNA gyrase | inhibition of S83R DNA gyrase (S83R E. coli DNA gyrase): buildup of OC DNA similar to that seen with S83L DNA gyrase only at a slightly higher concentration or longer time points | MIC ([2]; Staphylococcus aureus, ATCC29213, high-level CIP-resistant strains, second step, S84L mutation in GyrA): 0.06 to 0.12 µg/mL (≈ 0.202 to 0.405 µM) | MIC ([2]; low-level CIP-resistant strains, first step, WT gyrA, mutation in ParC (for example E84K or S80F)): not sensitive | resistant colonies on treatment (S. aureus (ATCC 29213)): resistant colonies were observed | AUC [3, 5]: 44000 ng·h/mL | Tmax [3, 5]: 1.2 h | half-life [3, 5]: 0.9 h | Cmax ([3]; female, C57BL/6, mouse, in vivo, mice, 50 mg kg^−1 oral dose, serum): 42.6 µM | Cmax ([3]; female, C57BL/6, mouse, mice, 50 mg kg^−1 oral dose, serum): 12800 ng/mL and ~50 µM | oral bioavailability / serum exposure ([3]; mice, 50 mg kg^−1 oral dose): good bioavailability | area under the curve ([3]; mice, 50 mg kg^−1 oral dose, serum): 44000 ng·h/mL | tolerability ([4]; increasing doses, highest dose evaluated 50 mg kg^−1 by oral gavage): well tolerated up to the highest dose evaluated | maximal tolerated dose ([4]; oral gavage): > 50 mg/kg | solubility at 1 h (physchem): 121 µM (≈ 35.9 µg/mL)

Source: article PMC4421842 (Nature Communications, 2015)
